Values of other authors as cited in patent US20250144159A1, “COMPOSITION COMPRISING A MIXTURE OF DHA AND/OR EPA AND A PHOSPHOLIPID OF PLANT ORIGIN” (POLARIS, priority 2022, published 2025).

Details: oral intake; compared with DHA in triglyceride (TG) form

Structure (SMILES) | cerebral capture of DHA
CCC=CCC=CCC=CCC=CCC=CCC=CCCC(=O)OC(COC(C)=O)COP(=O)([O-])OCC[N+](C)(C)C (centres unmarked) [AceDoPC] | improves
CC/C=C\C/C=C\C/C=C\C/C=C\C/C=C\C/C=C\CCC(=O)OC(CO)COP(=O)([O-])OCC[N+](C)(C)C (centres unmarked) [lysoPC-DHA] | improves
